In ChEMBL document CHEMBL4507297, “Data for DCP probe PF-04457845” (2021):
pKi: −log10 of the molar value.

Assays:
[1] = target: Cyclin-dependent kinase-like 2 (Homo sapiens) (UniProt Q92772); details: Compound concentration 1000.0 nM
[2] = target: Dual specificity tyrosine-phosphorylation-regulated kinase 1B (Homo sapiens) (UniProt Q9Y463); details: Compound concentration 1000.0 nM
[3] = target: Serine/threonine-protein kinase RIO3 (Homo sapiens) (UniProt O14730); details: Compound concentration 1000.0 nM
[4] = system: Tyrosine-protein kinase ABL1 (Homo sapiens), P00519 [M351T]; details: Compound concentration 1000.0 nM
[5] = system: Phosphatidylinositol 4,5-bisphosphate 3-kinase catalytic subunit alpha isoform (Homo sapiens), P42336 [E545A]; details: Compound concentration 1000.0 nM
[6] = target: Homeodomain-interacting protein kinase 4 (Homo sapiens) (UniProt Q8NE63); details: Compound concentration 1000.0 nM
[7] = target: Dual specificity mitogen-activated protein kinase kinase 3 (Homo sapiens) (UniProt P46734); details: Compound concentration 1000.0 nM
[8] = target: Muscle, skeletal receptor tyrosine-protein kinase (Homo sapiens) (UniProt O15146); details: Compound concentration 1000.0 nM
[9] = target: Serine/threonine-protein kinase 36 (Homo sapiens) (UniProt Q9NRP7); details: Compound concentration 1000.0 nM
[10] = target: Maternal embryonic leucine zipper kinase (Homo sapiens) (UniProt Q14680); details: Compound concentration 1000.0 nM
[11] = system: Phosphatidylinositol 4,5-bisphosphate 3-kinase catalytic subunit alpha isoform (Homo sapiens), P42336 [I800L]; details: Compound concentration 1000.0 nM
[12] = target: MAP/microtubule affinity-regulating kinase 3 (Homo sapiens) (UniProt P27448); details: Compound concentration 1000.0 nM
[13] = target: Muscarinic acetylcholine receptor M5 (Homo sapiens) (UniProt P08912); details: Compound concentration 10.0 uM
[14] = target: Myosin-IIIb (Homo sapiens) (UniProt Q8WXR4); details: Compound concentration 1000.0 nM
[15] = target: Ribosomal protein S6 kinase alpha-6 (Homo sapiens) (UniProt Q9UK32); details: Compound concentration 1000.0 nM
[16] = target: Mitogen-activated protein kinase 6 (Homo sapiens) (UniProt Q16659); details: Compound concentration 1000.0 nM
[17] = target: Receptor tyrosine-protein kinase erbB-4 (Homo sapiens) (UniProt Q15303); details: Compound concentration 1000.0 nM
[18] = target: Dual specificity mitogen-activated protein kinase kinase 4 (Homo sapiens) (UniProt P45985); details: Compound concentration 1000.0 nM
[19] = target: ALK tyrosine kinase receptor (Homo sapiens) (UniProt Q9UM73); details: Compound concentration 1000.0 nM
[20] = target: Cyclin-dependent kinase-like 1 (Homo sapiens) (UniProt Q00532); details: Compound concentration 1000.0 nM
[21] = target: Phosphorylase b kinase gamma catalytic chain, skeletal muscle/heart isoform (Homo sapiens) (UniProt Q16816); details: Compound concentration 1000.0 nM
[22] = target: Phosphatidylinositol 4-kinase beta (Homo sapiens) (UniProt Q9UBF8); details: Compound concentration 1000.0 nM
[23] = target: Protein-tyrosine kinase 6 (Homo sapiens) (UniProt Q13882); details: Compound concentration 1000.0 nM
[24] = system: Epidermal growth factor receptor (Homo sapiens), P00533 [UNDEFINED MUTATION]; details: Compound concentration 1000.0 nM
[25] = target: Serine/threonine-protein kinase VRK2 (Homo sapiens) (UniProt Q86Y07); details: Compound concentration 1000.0 nM
[26] = target: Cyclin-dependent kinase 3 (Homo sapiens) (UniProt Q00526); details: Compound concentration 1000.0 nM
[27] = target: LIM domain kinase 1 (Homo sapiens) (UniProt P53667); details: Compound concentration 1000.0 nM
[28] = target: STE20-like serine/threonine-protein kinase (Homo sapiens) (UniProt Q9H2G2); details: Compound concentration 1000.0 nM
[29] = target: Serine/threonine-protein kinase 26 (Homo sapiens) (UniProt Q9P289); details: Compound concentration 1000.0 nM
[30] = target: Death-associated protein kinase 2 (Homo sapiens) (UniProt Q9UIK4); details: Compound concentration 1000.0 nM
[31] = target: AP2-associated protein kinase 1 (Homo sapiens) (UniProt Q2M2I8); details: Compound concentration 1000.0 nM
[32] = target: LIM domain kinase 2 (Homo sapiens) (UniProt P53671); details: Compound concentration 1000.0 nM
[33] = system: Phosphatidylinositol 4,5-bisphosphate 3-kinase catalytic subunit alpha isoform (Homo sapiens), P42336 [H1047Y]; details: Compound concentration 1000.0 nM
[34] = target: Dual specificity mitogen-activated protein kinase kinase 7 (Homo sapiens) (UniProt O14733); details: Compound concentration 1000.0 nM
[35] = target: Cyclin-dependent kinase-like 3 (Homo sapiens) (UniProt Q8IVW4); details: Compound concentration 1000.0 nM
[36] = target: Mitogen-activated protein kinase kinase kinase 7 (Homo sapiens) (UniProt O43318); details: Compound concentration 1000.0 nM
[37] = target: Serine/threonine-protein kinase SBK1 (Homo sapiens) (UniProt Q52WX2); details: Compound concentration 1000.0 nM
[38] = target: Sigma intracellular receptor 2 (Homo sapiens, UniProt Q5BJF2); test: GPCRScan assay: inhibition of Sigma 2; set-up: radioligand conc. used [nm] 5.0, parental cells HEKT
[39] = system: Receptor-type tyrosine-protein kinase FLT3 (Homo sapiens), P36888 [N841I]; details: Compound concentration 1000.0 nM
[40] = target: Tyrosine-protein kinase Blk (Homo sapiens) (UniProt P51451); details: Compound concentration 1000.0 nM
[41] = system: Mast/stem cell growth factor receptor Kit (Homo sapiens), P10721 [D816H]; details: Compound concentration 1000.0 nM
[42] = target: Serine/threonine-protein kinase 32C (Homo sapiens) (UniProt Q86UX6); details: Compound concentration 1000.0 nM
[43] = target: Protein kinase C iota type (Homo sapiens) (UniProt P41743); details: Compound concentration 1000.0 nM
[44] = target: Ribosomal protein S6 kinase alpha-5 (Homo sapiens) (UniProt O75582); details: Compound concentration 1000.0 nM
[45] = target: Interleukin-1 receptor-associated kinase 4 (Homo sapiens) (UniProt Q9NWZ3); details: Compound concentration 1000.0 nM
Chain of Interleukin-1 receptor-associated kinase 4 (Homo sapiens) (Q9NWZ3 whole entry): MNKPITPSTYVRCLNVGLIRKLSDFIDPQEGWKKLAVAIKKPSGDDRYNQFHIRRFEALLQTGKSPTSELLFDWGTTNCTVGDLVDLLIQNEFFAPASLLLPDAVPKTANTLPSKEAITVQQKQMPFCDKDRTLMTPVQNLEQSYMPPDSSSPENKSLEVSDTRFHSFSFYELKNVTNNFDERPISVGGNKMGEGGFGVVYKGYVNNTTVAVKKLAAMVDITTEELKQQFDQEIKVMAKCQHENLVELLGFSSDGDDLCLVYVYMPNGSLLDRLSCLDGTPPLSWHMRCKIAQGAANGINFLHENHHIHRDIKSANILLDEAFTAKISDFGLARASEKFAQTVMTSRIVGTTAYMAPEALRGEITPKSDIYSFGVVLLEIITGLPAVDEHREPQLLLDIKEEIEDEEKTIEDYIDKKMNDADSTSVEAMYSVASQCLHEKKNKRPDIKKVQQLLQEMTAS

Chain of Receptor tyrosine-protein kinase erbB-4 (Homo sapiens) (Q15303 whole entry): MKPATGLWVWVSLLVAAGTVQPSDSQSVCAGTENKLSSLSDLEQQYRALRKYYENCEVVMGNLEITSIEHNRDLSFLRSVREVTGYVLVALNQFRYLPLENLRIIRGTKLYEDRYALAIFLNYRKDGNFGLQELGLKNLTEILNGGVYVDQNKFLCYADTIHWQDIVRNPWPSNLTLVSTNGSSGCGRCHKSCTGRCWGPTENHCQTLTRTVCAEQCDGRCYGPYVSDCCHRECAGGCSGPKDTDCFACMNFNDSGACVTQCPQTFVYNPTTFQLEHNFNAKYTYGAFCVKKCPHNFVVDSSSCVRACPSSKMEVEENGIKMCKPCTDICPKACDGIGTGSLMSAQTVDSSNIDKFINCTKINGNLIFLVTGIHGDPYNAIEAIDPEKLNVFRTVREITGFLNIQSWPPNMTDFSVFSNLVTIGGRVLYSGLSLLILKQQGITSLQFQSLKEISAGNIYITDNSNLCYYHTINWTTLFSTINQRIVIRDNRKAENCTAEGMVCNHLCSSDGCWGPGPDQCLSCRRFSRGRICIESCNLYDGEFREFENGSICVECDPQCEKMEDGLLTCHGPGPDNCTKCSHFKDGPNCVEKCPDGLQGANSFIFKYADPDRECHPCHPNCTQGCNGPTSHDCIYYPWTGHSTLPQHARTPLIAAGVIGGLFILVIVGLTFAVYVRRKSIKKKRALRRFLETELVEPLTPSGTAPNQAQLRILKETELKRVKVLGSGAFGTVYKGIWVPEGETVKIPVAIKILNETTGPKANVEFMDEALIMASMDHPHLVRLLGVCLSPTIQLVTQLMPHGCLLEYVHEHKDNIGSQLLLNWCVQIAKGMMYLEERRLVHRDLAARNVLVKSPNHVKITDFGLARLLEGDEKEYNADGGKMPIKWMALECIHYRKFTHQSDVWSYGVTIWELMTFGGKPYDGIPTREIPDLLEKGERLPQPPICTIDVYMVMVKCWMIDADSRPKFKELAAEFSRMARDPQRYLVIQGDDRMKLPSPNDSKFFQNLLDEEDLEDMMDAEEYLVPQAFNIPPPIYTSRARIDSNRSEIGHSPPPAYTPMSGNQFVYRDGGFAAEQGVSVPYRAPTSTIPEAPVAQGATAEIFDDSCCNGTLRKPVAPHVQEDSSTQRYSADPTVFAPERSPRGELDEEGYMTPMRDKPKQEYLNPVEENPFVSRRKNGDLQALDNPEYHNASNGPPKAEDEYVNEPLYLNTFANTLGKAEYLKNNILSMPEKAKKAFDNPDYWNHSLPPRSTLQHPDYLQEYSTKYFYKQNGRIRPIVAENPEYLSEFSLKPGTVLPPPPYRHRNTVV
Chain of Mast/stem cell growth factor receptor Kit (Homo sapiens), P10721 [D816H] (P10721 whole entry D816H): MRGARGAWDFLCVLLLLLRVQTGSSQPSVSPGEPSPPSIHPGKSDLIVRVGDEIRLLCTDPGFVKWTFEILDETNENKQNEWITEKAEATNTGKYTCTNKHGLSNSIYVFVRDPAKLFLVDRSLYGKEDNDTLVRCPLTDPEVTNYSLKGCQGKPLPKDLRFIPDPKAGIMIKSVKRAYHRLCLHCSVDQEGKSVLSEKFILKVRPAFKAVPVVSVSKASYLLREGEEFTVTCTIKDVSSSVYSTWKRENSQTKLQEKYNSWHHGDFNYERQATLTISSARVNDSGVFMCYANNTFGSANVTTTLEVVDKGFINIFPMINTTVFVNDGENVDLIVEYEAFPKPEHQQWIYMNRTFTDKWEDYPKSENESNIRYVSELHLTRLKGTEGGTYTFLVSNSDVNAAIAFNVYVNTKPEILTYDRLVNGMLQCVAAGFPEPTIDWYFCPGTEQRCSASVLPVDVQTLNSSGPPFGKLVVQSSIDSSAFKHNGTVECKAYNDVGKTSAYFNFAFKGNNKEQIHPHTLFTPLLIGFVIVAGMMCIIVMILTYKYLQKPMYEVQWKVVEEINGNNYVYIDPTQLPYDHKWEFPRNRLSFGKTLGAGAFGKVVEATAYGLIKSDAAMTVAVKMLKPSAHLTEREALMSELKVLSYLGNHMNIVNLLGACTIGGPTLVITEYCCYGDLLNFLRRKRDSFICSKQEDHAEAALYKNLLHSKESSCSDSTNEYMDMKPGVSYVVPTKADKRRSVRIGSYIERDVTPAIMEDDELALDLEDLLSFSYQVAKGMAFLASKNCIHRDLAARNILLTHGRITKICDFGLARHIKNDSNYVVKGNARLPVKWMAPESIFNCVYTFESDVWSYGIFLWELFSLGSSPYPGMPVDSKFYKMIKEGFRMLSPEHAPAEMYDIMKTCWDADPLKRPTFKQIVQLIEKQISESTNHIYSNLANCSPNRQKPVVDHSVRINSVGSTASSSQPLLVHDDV
Chain of Serine/threonine-protein kinase 32C (Homo sapiens) (Q86UX6 whole entry): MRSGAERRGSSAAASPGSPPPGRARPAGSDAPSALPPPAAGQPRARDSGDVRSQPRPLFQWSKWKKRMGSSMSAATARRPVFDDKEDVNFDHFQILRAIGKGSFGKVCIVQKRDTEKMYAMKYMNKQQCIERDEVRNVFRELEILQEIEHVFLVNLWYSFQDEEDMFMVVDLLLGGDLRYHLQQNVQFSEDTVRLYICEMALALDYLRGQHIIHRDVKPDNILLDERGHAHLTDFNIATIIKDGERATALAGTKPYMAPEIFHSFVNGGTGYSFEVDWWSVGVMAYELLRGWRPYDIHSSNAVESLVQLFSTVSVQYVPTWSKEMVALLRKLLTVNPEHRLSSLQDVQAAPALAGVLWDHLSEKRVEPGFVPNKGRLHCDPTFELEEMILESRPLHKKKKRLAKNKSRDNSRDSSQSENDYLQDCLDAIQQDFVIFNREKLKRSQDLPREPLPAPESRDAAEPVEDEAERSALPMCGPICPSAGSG
Chain of Maternal embryonic leucine zipper kinase (Homo sapiens) (Q14680 whole entry, looked up, canonical isoform): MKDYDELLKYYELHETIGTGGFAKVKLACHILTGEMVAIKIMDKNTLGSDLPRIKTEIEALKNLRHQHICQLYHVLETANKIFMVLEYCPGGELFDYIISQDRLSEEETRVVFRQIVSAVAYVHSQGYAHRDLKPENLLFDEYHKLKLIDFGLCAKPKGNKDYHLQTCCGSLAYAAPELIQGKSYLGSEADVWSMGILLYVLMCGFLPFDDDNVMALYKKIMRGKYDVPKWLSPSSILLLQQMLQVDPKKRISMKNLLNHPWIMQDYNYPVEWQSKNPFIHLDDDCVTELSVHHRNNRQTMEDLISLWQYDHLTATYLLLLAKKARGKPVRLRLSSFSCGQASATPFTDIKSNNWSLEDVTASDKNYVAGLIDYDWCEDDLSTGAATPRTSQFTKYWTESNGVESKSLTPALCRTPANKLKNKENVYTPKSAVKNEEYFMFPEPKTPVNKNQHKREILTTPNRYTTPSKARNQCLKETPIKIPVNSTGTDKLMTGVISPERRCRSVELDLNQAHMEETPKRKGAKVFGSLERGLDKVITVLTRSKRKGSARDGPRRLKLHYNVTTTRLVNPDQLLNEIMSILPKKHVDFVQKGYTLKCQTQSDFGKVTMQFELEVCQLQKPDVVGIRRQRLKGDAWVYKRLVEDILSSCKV
Chain of Mitogen-activated protein kinase kinase kinase 7 (Homo sapiens) (O43318 whole entry): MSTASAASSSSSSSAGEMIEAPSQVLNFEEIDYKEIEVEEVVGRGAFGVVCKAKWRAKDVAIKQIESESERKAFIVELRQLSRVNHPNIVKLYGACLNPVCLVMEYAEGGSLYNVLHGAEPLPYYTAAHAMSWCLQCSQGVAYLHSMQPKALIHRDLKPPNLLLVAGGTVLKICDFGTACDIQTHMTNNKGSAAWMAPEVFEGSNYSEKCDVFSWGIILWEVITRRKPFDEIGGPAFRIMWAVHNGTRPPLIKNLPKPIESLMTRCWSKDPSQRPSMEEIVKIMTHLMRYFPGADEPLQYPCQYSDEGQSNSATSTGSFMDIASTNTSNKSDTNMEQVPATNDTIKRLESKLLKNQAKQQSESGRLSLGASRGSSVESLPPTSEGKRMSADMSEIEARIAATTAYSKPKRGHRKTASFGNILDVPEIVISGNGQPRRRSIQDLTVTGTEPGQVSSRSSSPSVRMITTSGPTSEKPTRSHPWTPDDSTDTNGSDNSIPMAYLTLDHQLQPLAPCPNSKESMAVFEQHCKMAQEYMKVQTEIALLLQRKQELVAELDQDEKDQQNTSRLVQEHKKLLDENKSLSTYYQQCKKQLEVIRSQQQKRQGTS
Chain of Protein-tyrosine kinase 6 (Homo sapiens) (Q13882 whole entry, looked up): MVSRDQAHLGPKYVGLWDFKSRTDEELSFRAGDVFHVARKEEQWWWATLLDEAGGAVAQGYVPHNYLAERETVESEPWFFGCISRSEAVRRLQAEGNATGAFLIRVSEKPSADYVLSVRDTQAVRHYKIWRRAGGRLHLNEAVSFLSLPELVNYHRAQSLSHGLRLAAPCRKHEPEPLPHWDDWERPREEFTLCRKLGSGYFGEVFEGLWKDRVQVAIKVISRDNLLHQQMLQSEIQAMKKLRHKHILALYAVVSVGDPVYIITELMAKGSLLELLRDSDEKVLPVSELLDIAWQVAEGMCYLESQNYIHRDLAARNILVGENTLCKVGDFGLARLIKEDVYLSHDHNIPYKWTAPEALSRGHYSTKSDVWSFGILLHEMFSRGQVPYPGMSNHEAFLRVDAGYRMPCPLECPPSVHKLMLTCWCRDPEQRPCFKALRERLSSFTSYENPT

O=C(Nc1cccnn1)N1CC(C/C=C/c2cncc(Oc3ccc(C(F)(F)F)cn3)n2)C1
residual activity [1]: 100%
residual activity [2]: 100%
residual activity [3]: 100%
residual activity [4]: 67%
residual activity [5]: 75%
residual activity [6]: 92%
residual activity [7]: 72%
residual activity [8]: 97%
residual activity [9]: 100%
residual activity [10]: 100%
residual activity [11]: 91%
residual activity [12]: 100%
inhibition [13]: -0.59%
residual activity [14]: 100%
residual activity [15]: 89%
residual activity [16]: 100%
residual activity [17]: 100%
residual activity [18]: 74%
residual activity [19]: 97%
residual activity [20]: 100%
residual activity [21]: 100%
residual activity [22]: 91%
residual activity [23]: 91%
residual activity [24]: 100%
residual activity [25]: 97%
residual activity [26]: 100%
residual activity [27]: 88%
residual activity [28]: 100%
residual activity [29]: 71%
residual activity [30]: 100%
residual activity [31]: 100%
residual activity [32]: 95%
residual activity [33]: 100%
residual activity [34]: 91%
residual activity [35]: 95%
residual activity [36]: 93%
residual activity [37]: 89%
pKi [38]: 5.08
residual activity [39]: 62%
residual activity [40]: 65%
residual activity [41]: 74%
residual activity [42]: 100%
residual activity [43]: 96%
residual activity [44]: 100%
residual activity [45]: 100%

O=C(Nc1cccnn1)N1CCC(=Cc2cccc(Oc3ccc(C(F)(F)F)cn3)c2)CC1
residual activity [1]: 92%
residual activity [2]: 100%
residual activity [3]: 100%
residual activity [4]: 99%
residual activity [5]: 100%
residual activity [6]: 100%
residual activity [7]: 100%
residual activity [8]: 100%
residual activity [9]: 100%
residual activity [10]: 100%
residual activity [11]: 100%
residual activity [12]: 89%
inhibition [13]: 23.5%
residual activity [14]: 100%
residual activity [15]: 100%
residual activity [16]: 90%
residual activity [17]: 100%
residual activity [18]: 100%
residual activity [19]: 100%
residual activity [20]: 86%
residual activity [21]: 100%
residual activity [22]: 100%
residual activity [23]: 100%
residual activity [24]: 68%
residual activity [25]: 100%
residual activity [26]: 100%
residual activity [27]: 88%
residual activity [28]: 74%
residual activity [29]: 100%
residual activity [30]: 69%
residual activity [31]: 74%
residual activity [32]: 88%
residual activity [33]: 82%
residual activity [34]: 100%
residual activity [35]: 81%
residual activity [36]: 100%
residual activity [37]: 100%
pKi [38]: 6.36
residual activity [39]: 69%
residual activity [40]: 100%
residual activity [41]: 100%
residual activity [42]: 100%
residual activity [43]: 81%
residual activity [44]: 83%
residual activity [45]: 97%
